In patent US20130079373A1, “Substituted Methanesulfonamide Derivatives as Vanilloid Receptor Ligands” (priority 2011, published 2013):

Target: T1, vanilloid receptor 1 (VR1/TRPV1 receptor) (Homo sapiens, UniProt Q8NER1)
T1 construct: expressed in transfected cells; host or cells: CHO K1
Assay: Functional testing on the vanilloid receptor 1 (FLIPR Ca2+ influx assay, capsaicin stimulation)
Format: cell-based
Settings: Cap = capsaicin, human being; for Ki: Ki from IC50 by the Cheng-Prusoff equation, read-out: (f) Ki (human being) [nM] Cap; for inhibition at 5 µM: @5 μM compound
Procedure: Furthermore, preference may be given to compounds according to the invention that cause a 50 percent displacement of capsaicin, which is present at a concentration of 100 nM, in a FLIPR assay with CHO K1 cells which were transfected with the human VR1 gene at a concentration of less than 2,000 nM, preferably less than 1,000 nM, particularly preferably less than 300 nM, most particularly preferably less than 100 nM, even more preferably less than 75 nM, additionally preferably less than 50 nM, most preferably less than 10 nM.
In the process, the Ca^2+ influx is quantified in the FLIPR assay with the aid of a Ca^2+-sensitive dye (type Fluo-4, Molecular Probes Europe BV, Leiden, the Netherlands) in a fluorescent imaging plate reader (FLIPR, Molecular Devices, Sunnyvale, USA), as described hereinafter.
I. Functional Testing Carried Out on the Vanilloid Receptor 1 (VR1/TRPV1 Receptor) […]
The number of cells in the suspension is set to 3×10^5 per mL and 150 μL of this suspension are in each case introduced into a recess in the cell culture plates coated as described hereinbefore. In the incubator the plates are left for two to three days at 37° C., 5% by volume of CO2 and 95% relative humidity. Subsequently, the cells are loaded with 2 μM of Fluo-4 and 0.01% by volume of Pluronic F127 (Molecular Probes Europe BV, Leiden, the Netherlands) in HBSS buffer (Hank's buffered saline solution, Gibco Invitrogen GmbH, Karlsruhe, Germany) for 30 min at 37° C., washed 3 times with HBSS buffer and after further incubation for 15 minutes at room temperature used for Ca^2+ measurement in a FLIPR assay. The Ca^2+ dependent fluorescence is in this case measured before and after the addition of substances (λex=488 nm, λem=540 nm). Quantification is carried out by measuring the highest fluorescence intensity (FC, fluorescence counts) over time.
The FLIPR protocol consists of 2 substance additions. First the compounds to be tested (10 μM) are pipetted onto the cells and the Ca^2+ influx is compared with the control (capsaicin 10 μM). This provides the result in % activation based on the Ca^2+ signal after the addition of 10 μM of capsaicin (CP). After 5 minutes' incubation, 100 nM of capsaicin are applied and the Ca^2+ influx is also determined.
Desensitising agonists and antagonists lead to suppression of the Ca^2+ influx. The % inhibition is calculated compared to the maximum achievable inhibition with 10 μM of capsazepine.
Triple analyses (n=3) are carried out and repeated in at least 3 independent experiments (N=4).
Starting from the percentage displacement caused by different concentrations of the compounds to be tested of general formula I, IC50 inhibitory concentrations which cause a 50-percent displacement of capsaicin were calculated. Ki values for the test substances were obtained by conversion by means of the Cheng-Prusoff equation (Cheng, Prusoff; Biochem. Pharmacol. 22, 3099-3108, 1973).
The affinity of the compounds according to the invention for the vanilloid receptor 1 (VR1/TRPV1 receptor) was determined as described hereinbefore (pharmacological method I).

[1] = read-out: inhibition (as a percentage), (f) (human being) Cap

T1 sequence (Q8NER1 whole entry): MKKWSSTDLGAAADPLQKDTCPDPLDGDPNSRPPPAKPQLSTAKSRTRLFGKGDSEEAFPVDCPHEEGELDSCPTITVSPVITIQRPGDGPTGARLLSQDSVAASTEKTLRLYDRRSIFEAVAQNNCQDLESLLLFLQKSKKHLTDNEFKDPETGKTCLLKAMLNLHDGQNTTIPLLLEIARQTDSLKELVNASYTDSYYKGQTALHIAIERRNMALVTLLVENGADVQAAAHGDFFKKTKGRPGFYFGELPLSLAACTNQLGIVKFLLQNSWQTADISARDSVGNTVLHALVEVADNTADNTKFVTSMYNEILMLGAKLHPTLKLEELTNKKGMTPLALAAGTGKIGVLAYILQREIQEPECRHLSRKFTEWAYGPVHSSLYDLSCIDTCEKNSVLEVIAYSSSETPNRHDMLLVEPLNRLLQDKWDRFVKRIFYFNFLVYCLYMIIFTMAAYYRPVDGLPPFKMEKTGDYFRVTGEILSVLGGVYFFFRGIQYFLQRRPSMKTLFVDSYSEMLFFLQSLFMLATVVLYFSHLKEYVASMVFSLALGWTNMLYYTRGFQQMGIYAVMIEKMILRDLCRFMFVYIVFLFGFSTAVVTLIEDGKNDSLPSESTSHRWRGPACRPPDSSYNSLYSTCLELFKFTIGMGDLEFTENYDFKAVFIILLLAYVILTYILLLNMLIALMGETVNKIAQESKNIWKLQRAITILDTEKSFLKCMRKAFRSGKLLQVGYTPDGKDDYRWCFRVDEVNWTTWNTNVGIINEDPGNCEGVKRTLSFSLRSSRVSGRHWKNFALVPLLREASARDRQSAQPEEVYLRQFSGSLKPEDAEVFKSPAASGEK

Compound	Ki	other results
CCCCOc1nc(C(F)(F)F)ccc1CNC(=O)Nc1ccc(CNS(N)(=O)=O)cc1 [Example 33, 1-{[2-butoxy-6-(trifluoromethyl)pyridin-3-yl]methyl}-3-{4-[(sulfamoylamino)methyl]phenyl}urea]	8 nM	
CC(C(=O)NCc1ccc(C(F)(F)F)nc1SC1CCCCC1)c1ccc(CNS(C)(=O)=O)c(F)c1 (stereo not shown) [Example 43, N-((2-(cyclohexylthio)-6-(trifluoromethyl)pyridin-3-yl)methyl)-2-(3-fluoro-4-(methylsulfonamidomethyl)phenyl)propanamide]	44 nM	
CC(C(=O)NCc1ccc(C(F)(F)F)nc1/C=C/C(C)(C)C)c1ccc(CNS(C)(=O)=O)c(F)c1 (stereo not shown) [Example 4, (E)-N-((2-(3,3-dimethylbut-1-enyl)-6-(trifluoromethyl)pyridin-3-yl)methyl)-2-(3-fluoro-4-(methylsulfonamidomethyl)phenyl)propanamide]	12 nM	
CC(C(=O)NCc1ccc(C(F)(F)F)nc1OC1CCCC1)c1ccc(CNS(C)(=O)=O)c(F)c1 (stereo not shown) [Example 20, N-((2-(cyclopentyloxy)-6-(trifluoromethyl)pyridin-3-yl)methyl)-2-(3-fluoro-4-(methylsulfonamidomethyl)phenyl)propanamide]	13 nM	
CC(C(=O)NCc1ccc(C(F)(F)F)nc1-c1cccs1)c1ccc(CNS(C)(=O)=O)c(F)c1 (stereo not shown) [Example 47, 2-(3-fluoro-4-(methylsulfonamidomethyl)phenyl)-N-((2-(thiophen-2-yl)-6-(trifluoromethyl)pyridin-3-yl)methyl)propanamide]	41 nM	
COc1cc(C(C)C(=O)NCc2ccc(C(F)(F)F)nc2OC(C)C)ccc1CNS(C)(=O)=O (stereo not shown) [Example 27, N-((2-isopropoxy-6-(trifluoromethyl)pyridin-3-yl)methyl)-2-(3-methoxy-4-(methylsulfonamidomethyl)phenyl)propanamide]		inhibition at 1 µM (@1 μM compound, read-out: inhibition (as a percentage), (f) (human being) Cap): 15%
CC(C(=O)NCc1ccc(C(F)(F)F)nc1C1CCCC1)c1ccc(CNS(C)(=O)=O)c(F)c1 (stereo not shown) [Example 5, N-((2-cyclopentyl-6-(trifluoromethyl)pyridin-3-yl)methyl)-2-(3-fluoro-4-(methylsulfonamidomethyl)phenyl)propanamide]	13 nM	
CCOc1nc(C(F)(F)F)ccc1CNC(=O)Nc1ccc(CNS(N)(=O)=O)c(F)c1 [Example 35, 1-{3-fluoro-4-[(sulfamoylamino)methyl]phenyl}-3-{[2-ethoxy-6-(trifluoromethyl)pyridin-3-yl]methyl}urea]	16 nM	
CCCCOc1nc(C(F)(F)F)ccc1CNC(=O)C(C)c1ccc(CNS(C)(=O)=O)c(OC)c1 (stereo not shown) [Example 29, N-((2-butoxy-6-(trifluoromethyl)pyridin-3-yl)methyl)-2-(3-methoxy-4-(methylsulfonamidomethyl)phenyl)propanamide]	61 nM	
CCCCOc1nc(C(F)(F)F)ccc1CNC(=O)Nc1ccc(CNS(N)(=O)=O)c(F)c1 [Example 37, 1-{3-fluoro-4-[(sulfamoylamino)methyl]phenyl}-3-{[2-butoxy-6-(trifluoromethyl)pyridin-3-yl]methyl}urea]	7 nM	
CC(C(=O)NCc1ccc(C(F)(F)F)nc1-c1ccc2c(c1)OCO2)c1ccc(CNS(C)(=O)=O)c(F)c1 (stereo not shown) [Example 45, N-((2-(benzo[d][1,3]dioxol-5-yl)-6-(trifluoromethyl)pyridin-3-yl)methyl)-2-(3-fluoro-4-(methylsulfonamidomethyl)phenyl)propanamide]	59 nM	
CC(C)Oc1nc(C(F)(F)F)ccc1CNC(=O)Nc1ccc(CNS(N)(=O)=O)c(F)c1 [Example 36, 1-{3-fluoro-4-[(sulfamoylamino)methyl]phenyl}-3-{[2-isopropoxy-6-(trifluoromethyl)pyridin-3-yl]methyl}urea]	6 nM	
NS(=O)(=O)NCc1ccc(NC(=O)NCc2ccc(C(F)(F)F)nc2OC2CCCC2)cc1F [Example 38, 1-{3-fluoro-4-[(sulfamoylamino)methyl]phenyl}-3-{[2-cyclopentyloxy-6-(trifluoromethyl)pyridin-3-yl]methyl}urea]	5 nM	
NS(=O)(=O)NCc1ccc(NC(=O)NCc2ccc(C(F)(F)F)nc2OC2CCCC2)cc1 [Example 34, 1-{[2-cyclopentyloxy-6-(trifluoromethyl)pyridin-3-yl]methyl}-3-{4-[(sulfamoylamino)methyl]phenyl}urea]	1 nM	
COCCOCc1nc(C(F)(F)F)ccc1CNC(=O)C(C)c1ccc(CNS(C)(=O)=O)c(F)c1 (stereo not shown) [Example 3, 2-(3-fluoro-4-(methylsulfonamidomethyl)phenyl)-N-((2-((2-methoxyethoxy)methyl)-6-(trifluoromethyl)pyridin-3-yl)methyl)propanamide]		inhibition at 5 µM [1]: 13%
CC(C(=O)NCc1ccc(C(F)(F)F)nc1-c1ccoc1)c1ccc(CNS(C)(=O)=O)c(F)c1 (stereo not shown) [Example 46, 2-(3-fluoro-4-(methylsulfonamidomethyl)phenyl)-N-((2-(furan-3-yl)-6-(trifluoromethyl)pyridin-3-yl)methyl)propanamide]	46 nM	
CC(C(=O)NCc1ccc(C(F)(F)F)nc1-c1ccc2cc[nH]c2c1)c1ccc(CNS(C)(=O)=O)c(F)c1 (stereo not shown) [Example 44, N-((2-(1H-indol-6-yl)-6-(trifluoromethyl)pyridin-3-yl)methyl)-2-(3-fluoro-4-(methylsulfonamidomethyl)phenyl)propanamide]	83 nM	
COCCCc1nc(C(F)(F)F)ccc1CNC(=O)C(C)c1ccc(CNS(C)(=O)=O)c(F)c1 (stereo not shown) [Example 2, 2-(3-fluoro-4-(methylsulfonamidomethyl)phenyl)-N-((2-(3-methoxypropyl)-6-(trifluoromethyl)pyridin-3-yl)methyl)propanamide]		inhibition at 5 µM [1]: 18%
CC(C)Oc1nc(C(F)(F)F)ccc1CNC(=O)C(C)c1ccc(CNS(C)(=O)=O)c(F)c1 (stereo not shown) [Example 15, 2-(3-fluoro-4-(methylsulfonamidomethyl)phenyl)-N-((2-isopropoxy-6-(trifluoromethyl)pyridin-3-yl)methyl)propanamide]	37 nM	
CCCCOc1nc(C(F)(F)F)ccc1CNC(=O)C(C)c1ccc(CNS(=O)(=O)CC)c(F)c1 (stereo not shown) [Example 31, N-((2-butoxy-6-(trifluoromethyl)pyridin-3-yl)methyl)-2-(4-(ethylsulfonamidomethyl)-3-fluorophenyl)propanamide]	15 nM	
CCS(=O)(=O)NCc1ccc(C(C)C(=O)NCc2ccc(C(F)(F)F)nc2OC(C)C)cc1F (stereo not shown) [Example 30, 2-(4-(ethylsulfonamidomethyl)-3-fluorophenyl)-N-((2-isopropoxy-6-(trifluoromethyl)pyridin-3-yl)methyl)propanamide]	70 nM	
CC(C)Oc1nc(C(F)(F)F)ccc1CNC(=O)Nc1ccc(CNS(N)(=O)=O)cc1 [Example 32, 1-{[2-isopropoxy-6-(trifluoromethyl)pyridin-3-yl]methyl}-3-{4-[(sulfamoylamino)methyl]phenyl}urea]	10 nM	
CCCCOc1nc(C(F)(F)F)ccc1CNC(=O)C(C)c1ccc(CNS(C)(=O)=O)c(F)c1 (stereo not shown) [Example 16, N-((2-butoxy-6-(trifluoromethyl)pyridin-3-yl)methyl)-2-(3-fluoro-4-(methylsulfonamidomethyl)phenyl)propanamide]	8 nM	
CC(C(=O)NCc1ccc(C(F)(F)F)nc1OC1CCOCC1)c1ccc(CNS(C)(=O)=O)c(F)c1 (stereo not shown) [Example 25, 2-(3-fluoro-4-(methylsulfonamidomethyl)phenyl)-N-((2-(tetrahydro-2H-pyran-4-yloxy)-6-(trifluoromethyl)pyridin-3-yl)methyl)propanamide]	111 nM	
CC(C(=O)NCc1ccc(C(F)(F)F)nc1C1CCCCC1)c1ccc(CNS(C)(=O)=O)c(F)c1 (stereo not shown) [Example 6, N-((2-cyclohexyl-6-(trifluoromethyl)pyridin-3-yl)methyl)-2-(3-fluoro-4-(methylsulfonamidomethyl)phenyl)propanamide]	15 nM	
